Results taken from BindingDB's records for doi:10.1016/0960-894X(95)00361-V (Sphinx Pharmaceuticals, 1995).

Columns and labels:
Test in all cases: PKC assay
[1] = target: Protein kinase C alpha type (Homo sapiens, UniProt P17252)
Method: (§1) The activity of PKC, activated by phosphatidylerine and Ca2+, is measured by its ability to transfer phosphate from [gamma-32P]ATP to lysine-rich histone.

[2] = target: Protein kinase C beta type (Homo sapiens, UniProt P05771)
Method: as §1

[3] = target: Protein kinase C delta type (Homo sapiens, UniProt Q05655)
Method: as §1

[4] = target: T1, Protein kinase C epsilon type (Homo sapiens, UniProt Q02156)
T1 sequence (Q02156 whole entry): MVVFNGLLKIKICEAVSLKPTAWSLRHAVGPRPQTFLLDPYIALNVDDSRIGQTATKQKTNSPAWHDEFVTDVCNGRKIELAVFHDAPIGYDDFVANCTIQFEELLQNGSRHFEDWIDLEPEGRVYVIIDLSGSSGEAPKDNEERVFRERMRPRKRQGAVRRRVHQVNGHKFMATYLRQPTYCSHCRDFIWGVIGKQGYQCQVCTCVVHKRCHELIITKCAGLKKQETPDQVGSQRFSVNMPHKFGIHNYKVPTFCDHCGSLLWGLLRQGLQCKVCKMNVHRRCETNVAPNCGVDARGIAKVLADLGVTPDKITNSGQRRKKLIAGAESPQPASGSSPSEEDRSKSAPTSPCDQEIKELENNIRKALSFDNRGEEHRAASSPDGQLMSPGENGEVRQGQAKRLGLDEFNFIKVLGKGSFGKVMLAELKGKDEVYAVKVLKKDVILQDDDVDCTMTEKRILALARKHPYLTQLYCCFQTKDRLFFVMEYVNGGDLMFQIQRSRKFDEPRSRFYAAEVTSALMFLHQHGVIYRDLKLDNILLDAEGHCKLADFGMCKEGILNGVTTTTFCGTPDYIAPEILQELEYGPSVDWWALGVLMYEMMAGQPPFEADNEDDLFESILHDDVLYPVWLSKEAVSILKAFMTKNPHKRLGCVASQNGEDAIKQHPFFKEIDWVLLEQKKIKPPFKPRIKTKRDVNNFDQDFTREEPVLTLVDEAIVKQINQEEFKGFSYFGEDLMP
Method: as §1

[5] = target: Protein kinase C eta type (Homo sapiens, UniProt P24723)
Method: as §1

Chain of Protein kinase C delta type (Q05655 whole entry): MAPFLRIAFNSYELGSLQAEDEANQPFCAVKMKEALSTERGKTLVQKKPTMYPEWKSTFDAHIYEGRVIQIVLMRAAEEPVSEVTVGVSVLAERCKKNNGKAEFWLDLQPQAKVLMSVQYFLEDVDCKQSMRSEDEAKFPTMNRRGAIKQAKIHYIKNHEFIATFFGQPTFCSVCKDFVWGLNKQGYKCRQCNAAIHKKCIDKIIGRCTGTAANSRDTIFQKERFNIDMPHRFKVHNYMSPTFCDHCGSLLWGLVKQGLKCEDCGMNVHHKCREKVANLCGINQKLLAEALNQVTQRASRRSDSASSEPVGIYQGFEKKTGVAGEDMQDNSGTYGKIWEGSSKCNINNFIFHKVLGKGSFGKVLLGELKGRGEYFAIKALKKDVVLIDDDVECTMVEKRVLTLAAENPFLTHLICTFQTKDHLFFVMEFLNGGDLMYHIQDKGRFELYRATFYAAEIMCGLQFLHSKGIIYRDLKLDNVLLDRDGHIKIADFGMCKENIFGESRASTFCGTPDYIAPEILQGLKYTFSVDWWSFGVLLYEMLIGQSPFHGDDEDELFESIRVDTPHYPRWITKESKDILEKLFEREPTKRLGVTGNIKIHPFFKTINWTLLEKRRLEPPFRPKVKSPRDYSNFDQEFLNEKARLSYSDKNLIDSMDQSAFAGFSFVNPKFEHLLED
Chain of Protein kinase C eta type (P24723 whole entry): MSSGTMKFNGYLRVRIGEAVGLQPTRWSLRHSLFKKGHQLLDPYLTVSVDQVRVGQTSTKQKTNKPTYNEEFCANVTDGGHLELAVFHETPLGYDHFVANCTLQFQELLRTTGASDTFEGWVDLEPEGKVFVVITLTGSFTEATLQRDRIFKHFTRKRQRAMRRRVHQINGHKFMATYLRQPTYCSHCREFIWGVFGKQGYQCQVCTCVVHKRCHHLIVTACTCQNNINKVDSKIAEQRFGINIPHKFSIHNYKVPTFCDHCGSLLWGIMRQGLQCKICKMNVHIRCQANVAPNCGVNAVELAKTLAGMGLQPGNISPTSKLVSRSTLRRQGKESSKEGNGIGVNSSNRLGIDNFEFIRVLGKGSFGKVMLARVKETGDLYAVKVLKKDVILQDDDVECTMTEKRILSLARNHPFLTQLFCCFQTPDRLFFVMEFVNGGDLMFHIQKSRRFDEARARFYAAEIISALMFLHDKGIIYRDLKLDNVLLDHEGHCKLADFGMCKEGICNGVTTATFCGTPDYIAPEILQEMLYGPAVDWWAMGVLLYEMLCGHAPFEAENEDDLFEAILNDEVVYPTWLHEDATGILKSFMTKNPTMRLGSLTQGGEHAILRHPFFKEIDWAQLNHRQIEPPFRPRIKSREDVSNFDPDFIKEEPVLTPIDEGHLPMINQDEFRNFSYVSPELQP
Chain of Protein kinase C beta type (P05771 whole entry): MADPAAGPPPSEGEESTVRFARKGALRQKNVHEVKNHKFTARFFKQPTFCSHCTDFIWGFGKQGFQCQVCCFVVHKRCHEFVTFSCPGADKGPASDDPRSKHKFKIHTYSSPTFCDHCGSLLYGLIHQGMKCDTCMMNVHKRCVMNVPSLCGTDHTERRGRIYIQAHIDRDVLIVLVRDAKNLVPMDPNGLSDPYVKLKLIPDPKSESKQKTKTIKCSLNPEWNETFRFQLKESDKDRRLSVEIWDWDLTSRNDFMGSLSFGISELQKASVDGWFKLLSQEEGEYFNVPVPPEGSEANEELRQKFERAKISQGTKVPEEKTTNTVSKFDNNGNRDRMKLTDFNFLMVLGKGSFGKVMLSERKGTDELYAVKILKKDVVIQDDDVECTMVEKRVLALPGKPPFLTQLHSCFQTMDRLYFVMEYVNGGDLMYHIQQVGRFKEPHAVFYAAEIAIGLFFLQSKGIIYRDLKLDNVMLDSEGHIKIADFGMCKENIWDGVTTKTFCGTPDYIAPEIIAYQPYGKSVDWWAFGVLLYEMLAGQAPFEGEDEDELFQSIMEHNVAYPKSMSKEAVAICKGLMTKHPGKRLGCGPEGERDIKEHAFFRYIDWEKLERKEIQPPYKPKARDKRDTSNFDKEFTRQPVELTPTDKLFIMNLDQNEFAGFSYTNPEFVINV

Row | IC50 [1] [µM] | IC50 [2] [µM] | IC50 [3] [µM] | IC50 [4] [µM] | IC50 [5] [µM] | SMILES
1 | 0.21 | 0.04 | 0.005 | 0.3 | 0.004 | COC(=O)c1cccc(O)c1Oc1c(O)cc(C(=O)O[C@@H]2CCC[C@H]2NC(=O)c2ccc(O)cc2)cc1O [(1R,2R)-2-[(4-hydroxybenzene)amido]cyclopentyl 3,5-dihydroxy-4-[2-hydroxy-6-(methoxycarbonyl)phenoxy]benzoate]
2 | 4.2 | 1.8 | 0.25 | 20 | 0.4 | COC(=O)c1cccc(O)c1Oc1c(O)cc(C(=O)O[C@H]2CCC[C@@H]2NC(=O)c2ccc(O)cc2)cc1O [(1S,2S)-2-[(4-hydroxybenzene)amido]cyclopentyl 3,5-dihydroxy-4-[2-hydroxy-6-(methoxycarbonyl)phenoxy]benzoate]
